{"source": "patent US8741659B2", "about": "“Composition for measuring the binding affinity between nucleic acid and test substance, and use thereof” (Osaka University, priority 2007, dated 2014)", "key": {"[1]": {"system": "RRE", "experiment": "Displacement assay using Rev peptide after formation of complex with RRE", "type": "binding, HIV-1", "settings": "for fluorescence intensity in displacement assay / recovery rate of the fluorescence intensity: compound and RRE each 2 μM", "method": "In this Example, a binding affinity between a test substance and RRE was evaluated, with use of the compounds, X2S, X2S(3), X2S(4), X2S(5), X2S(2-Me), and 3,6-X2S(2). As the test substance, Rev protein used in Example 5 was used.\nFirstly, in the same manner as in Example 3, the above compounds and RREs were respectively dissolved in cacodylate buffer solutions (sodium cacodylate: 10 mM pH 7.0, NaCl: 100 mM) each at 2 μM, so that an X2S-RRE solution, an X2S(3)-RRE solution, an X2S(4)-RRE solution, an X2S(5)-RRE solution, an X2S(2-Me)-RRE solution, and a 3,6-X2S(2)-RRE solution were prepared.\nTo each of these solutions, Rev protein was added in stages at 0 μM, 0.4 μM, 0.8 μM, 1.2 μM, 1.6 μM, 2.0 μM, 2.4 μM, 2.8 μM, 3.2 μM, 3.6 μM, and 4.0 μM. Further, a fluorescence intensity was measured at each concentration. The fluorescence intensity was measured in the same manner as that described in Example 14.\nEach of FIGS. 43 to 48 is a view illustrating a result of the measurement of a binding affinity between Rev protein and RRE. […] In each of FIGS. 43 to 48, the horizontal axis represents the fluorescence wavelength, whereas the vertical axis represents the fluorescence intensity. […] Further, along the direction of the arrow extending from the curved line at the bottom, the curved lines, showing the respective results, are arranged in order of increasing amount of the test substance which was added.\nFIG. 49 is a view illustrating a relationship between an amount of Rev added and a fluorescence intensity, in connection with X2S, X2S(3), X2S(4), X2S(5), X2S(2-Me), and 3,6-X2S(2). Further, FIG. 49 is also a view plotting, based on the results illustrated in FIGS. 43 to 48, the fluorescence intensities detected at the fluorescence wavelength at which the respective fluorescence peaks were observed. FIG. 50 is a graph illustrating a relationship between an amount of Rev added and a recovery rate of the fluorescence intensity. In FIG. 49, the vertical axis represents the fluorescence intensity. In FIG. 50, the vertical axis represents the recovery rate of the fluorescence intensity. In each of FIGS. 49 and 50, the horizontal axis represents the amount of Rev added. That is, each of FIGS. 49 and 50 reflects amounts of the above compounds liberated from RREs due to the addition of Rev.\nThe recovery rate of the fluorescence intensity was obtained by dividing (i) a maximum value of the fluorescence intensity detected at each Rev concentration ranging from 0 μM to 4.0 μM in each of FIGS. 43 to 48 by (ii) a maximum value of the fluorescence intensity of the curved line at the top in each of FIGS. 43 to 48.\nIn this Example, 1-Pyrenemethanamide, hydrochloride was used to measure a binding affinity between a test substance and RRE. As the test substance, Rev protein used in Example 5 was used.\nFirstly, in the same manner as in Example 3, 1-Pyrenemethanamide, hydrochloride and RRE were dissolved in a cacodylate buffer solution (sodium cacodylate: 10 mM, pH 7.0; NaCl: 100 mM) each at 2 μM, so that a 1-Pyrenemethanamide, hydrochloride-RRE solution was prepared.\nTo the solution, Rev protein was added in steps at 0 μM, 0.4 μM, 0.8 μM, 1.2 μM, 1.6 μM, 2.0 μM, 2.4 μM, 2.8 μM, 3.2 μM, 3.6 μM, and 4.0 μM. Further, the solution at each concentration was irradiated with light having an excitation wavelength of 340 nm, and a fluorescence intensity was measured. A device used for measuring a fluorescence intensity and a variation in a slit width were the same as those in Example 13.\nFIG. 55 is a view illustrating a result of the measurement of a binding affinity between Rev protein and RRE. The horizontal axis represents the fluorescence wavelength, whereas the vertical axis represents the fluorescence intensity. […] Further, along a bottom-to-top direction, the curved lines, showing the respective results, are arranged in order of increasing amount of the test substance which was added. […]"}, "[2]": {"system": "RNAs of FIG. 2 (SEQ ID NOs: 1 through 3), with or without bulge structure", "experiment": "Evaluation of binding between xanthone fluorescent molecule and RNA (fluorescence before and after mixing RNA)", "settings": "10 μM compound", "method": "Next, binding between X2S and RNAs was evaluated. The RNAs used in the present example had the structure illustrated in FIG. 2. FIG. 2 is a diagram schematically illustrating the structure of the RNAs used in the present example. The RNAs used in the present example had sequences shown in SEQ ID NOs: 1 through 3.\nThe symbol N in FIG. 2 represents either a base out of A, U, C, and G, or no base. Thus, in a case where a particular RNA as in FIG. 2 has N representing a base out of A, U, C, and G, the RNA is an RNA formed by hybridization of an RNA having the base sequence shown in SEQ ID NO: 1 with a single strand RNA having the base sequence shown in SEQ ID NO: 2. On the other hand, in a case where a particular RNA as in FIG. 2 has N representing no base, the RNA is an RNA formed by hybridization of an RNA having the base sequence shown in SEQ ID NO: 1 with an RNA having the base sequence shown in SEQ ID NO: 3.\nThis also applies to other bases. The RNAs used in the present example were purchased from Hokkaido System Science Co., Ltd.\nFirstly, X2S was mixed in a cacodylate buffer solution (sodium cacodylate: 10 mM, pH 7.0; NaCl: 100 mM) at 10 μM, so that an X2S solution was obtained. The X2S solution was irradiated with light having an absorption maximum of 371±3 nm, and a fluorescence intensity was then measured. The fluorescence intensity was measured with use of a device (product number: RF-5300PC) available from Shimadzu Corporation. For each type of the RNAs, the fluorescence intensity was measured after the RNA was mixed in the X2S solution at 30 μM.\nFIGS. 3 and 4 compare the fluorescence intensities measured before and after the RNA was mixed. […] The horizontal axis represents the fluorescence wavelength, whereas the vertical axis represents the fluorescence intensity. FIG. 4 is an enlarged graph corresponding to the fluorescence intensity of 5 A.U. in FIG. 3 and its vicinity.\nBinding between X1S and RNAs was evaluated by a method identical to the method described in Example 2, except that X1S was used instead of X2S. […]"}, "[3]": {"system": "RRE", "experiment": "Displacement assay using X2S", "type": "binding, HIV-1", "settings": "for binding affinity with respect to RRE / change of fluorescence intensity on addition of test substance: X2S and RRE each 2 μM, test substance 0-4.0 μM; for change of fluorescence intensity on addition of test substance: 453 nm", "text": "In this Example, X2S was used to measure a binding affinity between a test substance and RRE. As the test substance, Rev protein (supplied by Professor Takashi MORII, Graduates School of Energy Science, Kyoto University), aminoglycoside antibiotic neomycin (available from Sigma-Aldrich, product number; N-1876) (hereinafter, simply referred to as “neomycin”), and thrombin (available from Bachem, product number; AG H-8550) were used. […] The structure of Rev protein is shown in FIG. 9, and the amino acid sequence of Rev protein is shown in SEQ ID NO: 5. FIG. 9 is a view schematically illustrating the structure of Rev protein. Further, the structure of thrombin is shown in FIG. 10, and the amino acid sequence of thrombin is shown in SEQ ID NO: 6. FIG. 10 is a view schematically illustrating the structure of thrombin.\nFirstly, in the same manner as in Example 3, X2S and RRE were dissolved in a cacodylate buffer solution (sodium cacodylate: 10 mM, pH 7.0; NaCl: 100 mM) each at 2 μM. Thus, an X2S-RRE solution was prepared.\nTo the X2S-RRE solution, Rev protein was added in steps at 0 μM, 0.4 μM, 0.8 μM, 1.2 μM, 1.6 μM, 2.0 μM, 2.4 μM, 2.8 μM, 3.2 μM, 3.6 μM, and 4.0 μM. Further, a fluorescence intensity was measured at each concentration. Similarly, to the X2S-RRE solution, neomycin was added in steps at 0 μM, 0.4 μM, 0.8 μM, 1.2 μM, 1.6 μM, 2.0 μM, 2.4 μM, 2.8 μM, 3.2 μM, 3.6 μM, and 4.0 μM. Further, a fluorescence intensity was measured at each concentration. Similarly, to the X2S-RRE solution, thrombin was added in steps at 0 μM, 0.4 μM, 0.8 μM, 1.2 μM, 1.6 μM, 2.0 μM, 2.4 μM, 2.8 μM, 3.2 μM, 3.6 μM, and 4.0 μM. Further, a fluorescence intensity was measured at each concentration. The fluorescence intensities were measured in the same manner as that described in Example 2.\nFIG. 11 is a view illustrating a result of the measurement of a binding affinity between Rev protein and RRE; FIG. 12 is a view illustrating a result of the measurement of a binding affinity between neomycin and RRE; and FIG. 13 is a view illustrating a result of the measurement of a binding affinity between thrombin and RRE. In each of FIGS. 11 to 13, the horizontal axis represents the fluorescence wavelength, whereas the vertical axis represents the fluorescence intensity. […] Furthermore, along the direction of the arrow extending from the curved line at the bottom, the curved lines are arranged in order of increasing amount of the test substance which was added.\nFIG. 14 is a view plotting the fluorescence intensities at a fluorescence wavelength of 453 nm shown in the results illustrated in FIGS. 11 to 13. The horizontal axis represents the concentration of each test substance, whereas the vertical axis represents the fluorescence intensity. In FIG. 14, the circle marks represent the result obtained in the case involving use of Rev protein, the square marks represent the result obtained in the case involving use of neomycin, and the triangle marks represent the result obtained in the case involving use of thrombin.\nA displacement assay using X2S was performed in the same manner as that described in Example 5, except that, in this Example, fluorescence was measured also when Rev protein was added at concentrations of 4.4 μM and 4.8 μM.\nFIG. 16 is a view illustrating the result of the displacement assay using X2S. The horizontal axis represents the fluorescence wavelength, whereas the vertical axis represents the fluorescence intensity."}}, "data": [{"compound": "NCCOc1ccc2c(=O)c3ccc(OCCN)cc3oc2c1", "note": "[3,6-X2S(2), 3,6-bis(2-aminoethoxy)xanthen-9-one]", "values": [{"measurement": "fluorescence intensity in displacement assay", "setting": "[1]; Rev protein 0-4.0 μM", "result": "low"}, {"measurement": "recovery rate of the fluorescence intensity", "setting": "[1]; Rev protein 0-4.0 μM", "result": "almost equal to that of X2S"}]}, {"compound": "NCCOc1ccc2oc3ccccc3c(=O)c2c1", "note": "[X1S, 2-(2-aminoethoxy)xanthen-9-one]", "values": [{"measurement": "binding to RNAs", "setting": "[2]; 30 μM RNA (A, U, C, G bulge or no bulge), cacodylate buffer pH 7.0, NaCl 100 mM", "result": "binds to RNAs regardless of whether the bulge structure is present"}, {"measurement": "detected decrease in the fluorescence intensity on mixing RNA", "setting": "[2]; 30 μM RNA, compared with X2S", "result": "small as compared to the case of X2S"}]}, {"compound": "CC(N)COc1ccc2oc3ccc(OCC(C)N)cc3c(=O)c2c1", "note": "(stereo not shown) [X2S(2-Me), 2,7-bis(2-methyl-2-aminoethoxy)xanthen-9-one]", "values": [{"measurement": "fluorescence intensity in displacement assay", "setting": "[1]; Rev protein 0-4.0 μM", "result": "lower than that of X2S"}, {"measurement": "recovery rate of the fluorescence intensity", "setting": "[1]; Rev protein 0-4.0 μM", "result": "highest"}]}, {"compound": "Rev protein: Rev protein, SEQ ID NO: 5, known to bind to RRE; test substance (TRQARRNRRRRWRERQRAAAAR; Human immunodeficiency virus type 1)", "values": [{"measurement": "change of fluorescence intensity on addition of Rev protein", "setting": "[1]; 1-Pyrenemethanamide, hydrochloride and RRE each 2 μM, excitation 340 nm", "result": "increased the fluorescence intensity"}, {"measurement": "binding affinity of Rev protein with respect to RRE", "setting": "[1]; measured with X2S, X2S(3), X2S(4), X2S(5), X2S(2-Me), 3,6-X2S(2), each 2 μM with RRE", "result": "significantly high binding affinity"}, {"measurement": "change of fluorescence intensity on addition of Rev protein", "setting": "[1]; xanthone compounds and RRE each 2 μM, Rev protein 0-4.0 μM", "result": "increased the fluorescence intensity"}, {"measurement": "binding affinity with respect to RRE", "setting": "[3]", "result": "significantly high binding affinity"}, {"measurement": "change of fluorescence intensity on addition of test substance", "setting": "[3]", "result": "increased the fluorescence intensity"}, {"measurement": "fluorescence intensity recovered", "setting": "[3]; X2S-RRE solution, FIG. 14, 453 nm", "result": "approximately 80%"}]}, {"compound": "neomycin [reference compound]", "values": [{"measurement": "binding affinity with respect to RRE", "setting": "[3]", "result": "lower binding affinity with respect to RRE compared with Rev protein"}, {"measurement": "change of fluorescence intensity on addition of test substance", "setting": "[3]", "result": "slightly increased the fluorescence intensity"}]}, {"compound": "thrombin", "values": [{"measurement": "binding affinity with respect to RRE", "setting": "[3]", "result": "does not bind to RRE"}, {"measurement": "change of fluorescence intensity on addition of test substance", "setting": "[3]", "result": "hardly increased the fluorescence intensity"}]}]}
